target: T1, 5-HT6 receptor (Homo sapiens, UniProt P50406); assay: Binding affinity for the 5-HT6 receptor (3H-LSD displacement, membranes of recombinant cells); conditions: 100 nM of test compound; 3H-LSD (2 nM); 60 minute incubation at 37° C.; read-out: percent inhibition of binding of the radioligand for the 5-HT6 receptor
T1 construct: expressed in transfected cells
Procedure: All of the compounds of the invention were evaluated using cell types receptive specifically to the 5-HT6 receptor (for cloning and characterization of the human 5-HT6 receptor see Kohen, et al. J. Neurochemistry, 66, 1996: 47-56). The assay protocol generally entailed the incubation of membranes prepared from cells expressing the 5-HT6 receptor with ^3H-LSD (2 nM). Increasing levels of the test compound were incubated with the radioligand and the membrane homogenates prepared from the recombinant cells. After a 60 minute incubation at 37° C., the incubation was terminated by vacuum filtration. The filters were washed with buffer and the filters were counted for radioactivity using liquid scintillation spectrometry. The affinity of the test compound for the 5-HT6 receptor was determined by computer-assisted analysis of the data and determining the amount of the compound necessary to inhibit 50% of the binding of the radioligand to the receptor. Concentrations ranging from 10^−11 M to 10^−5 M of the test compound were evaluated. […] Affinity for the 5-HT6 receptor is expressed as the amount (in percent) of binding of the radioligand that is inhibited in the presence of 100 nM of test compound. A greater percent inhibition indicates greater affinity for the 5-HT6 receptor.

T1 sequence (P50406 whole entry): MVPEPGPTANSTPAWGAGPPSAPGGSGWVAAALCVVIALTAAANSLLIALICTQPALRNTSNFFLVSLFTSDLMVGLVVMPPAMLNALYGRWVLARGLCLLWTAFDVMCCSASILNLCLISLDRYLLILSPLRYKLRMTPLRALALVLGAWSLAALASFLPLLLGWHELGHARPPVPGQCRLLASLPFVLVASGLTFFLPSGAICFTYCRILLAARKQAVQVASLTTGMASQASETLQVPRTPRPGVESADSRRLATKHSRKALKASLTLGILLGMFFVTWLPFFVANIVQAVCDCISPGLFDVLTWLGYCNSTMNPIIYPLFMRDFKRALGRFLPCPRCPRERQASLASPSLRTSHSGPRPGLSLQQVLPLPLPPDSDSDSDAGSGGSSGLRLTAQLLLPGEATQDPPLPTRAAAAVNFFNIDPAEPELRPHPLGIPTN

inhibition at 0.1 µM	Structure (SMILES)
> 80%	O=S(=O)(c1ccc2ccccc2c1)n1cc(C2CCN3CCCC3C2)c2cccnc21 (single isomer, unassigned) [3-(Octahydro-7-indolizinyl)-1-(2-naphthalenesulfonyl)-7-azaindole]
> 80%	O=S(=O)(c1cccc2ccccc12)n1cc(C2CCN3CCCC3C2)c2ncccc21 (stereo not shown) [3-(Octahydro-7-indolizinyl)-1-(1-naphthalenesulfonyl)-4-azaindole]
> 95%	O=S(=O)(c1ccc2ccccc2c1)n1cc(C2CCN3CCCC3C2)c2ncccc21 (stereo not shown) [3-(Octahydro-7-indolizinyl)-1-(2-naphthalenesulfonyl)-4-azaindole]
> 90%	O=S(=O)(c1ccc2ccccc2c1)n1cc(C2=CCN3CCCC3C2)c2cccnc21 (stereo not shown) [3-(1,2,3,5,8,8a-Hexahydro-7-indolizinyl)-1-(2-naphthalenesulfonyl)-7-azaindole]
> 80%	Cc1ccc(S(=O)(=O)n2cc(C3=CCN4CCCC4C3)c3cnccc32)cc1 (stereo not shown) [3-(1,2,3,5,8,8a-Hexahydro-7-indolizinyl)-1-(4-methylbenzenesulfonyl)-5-azaindole]
> 80%	O=S(=O)(c1cccc2ccccc12)n1cc(C2CCN3CCCC3C2)c2ccncc21 (single isomer, unassigned) [3-(Octahydro-7-indolizinyl)-1-(1-naphthalenesulfonyl)-6-azaindole]
> 95%	O=S(=O)(c1cccc2ccccc12)n1cc(C2=CCN3CCCC3C2)c2cnccc21 (stereo not shown) [3-(1,2,3,5,8,8a-Hexahydro-7-indolizinyl)-1-(1-naphthalenesulfonyl)-5-azaindole]
> 90%	O=S(=O)(c1ccccc1)n1cc(C2=CCN3CCCC3C2)c2cnccc21 (stereo not shown) [3-(1,2,3,5,8,8a-Hexahydro-7-indolizinyl)-1-benzenesulfonyl-5-azaindole]
> 80%	O=C(c1c(Cl)cccc1Cl)n1cc(C2=CCN3CCCC3C2)c2cccnc21 (stereo not shown) [1-(2,6-Dichlorobenzoyl)-3-(1,2,3,5,8,8a-hexahydro-7-indolizinyl)-7-azaindole]

target: T1, 5-HT6 receptor; assay: Functional assay: serotonin-induced adenyl cyclase activity (cAMP) in HEK 293 cells; type: cell-based; conditions: HEK 293 cells stably expressing human 5HT6 receptor; test compound (100 nM and 10 μM) along with serotonin; cAMP by EIA
Procedure: The 5HT6 receptor responds to serotonin and other agonists by increasing adenyl cyclase mediated production of cyclic AMP. Particular test compounds were assayed for their effect on adenyl cyclase activity using the procedure described below.
Compounds acting as antagonists at the 5HT6 receptor will antagonize the agonist effect of serotonin and thus, will block the serotonin-induced increase in adenyl cyclase activity.
HEK 293 cells stably expressing the human 5HT6 receptor were plated in 6 well plates in DMEM (Dulbecco's Modified Eagle Medium)/F12 (Nutrient Mixture F12—Ham) media with 10% FCS (fetal calf serum) and G418 (Geneticen Disulfate, 500 ug/ml), and incubated at 37° C. in a CO2 incubator. The cells were allowed to grow to about 70% confluence before use in the assay.
The culture medium of each well was removed, and the wells were washed once with serum free media. Then 2 ml of SFM+IBMX medium (SFM with 0.5 mM IBMX, 3-isobutyl-1-methylxanthine, 0.1% ascorbic acid and 10 mM pargyline) was added to each well and the wells were incubated at 37° C. for 10 min. Following incubation, the SFM+IBMX medium was removed from each well and fresh SFM+IBMX media was added to the wells separately with one of a) serotonin (1 μM final concentration); b) test compound (100 nM and 10 μM, to test for agonist activity); and c) test compound (100 nM and 10 μM) along with serotonin ([…], to test for antagonist activity). Basal adenyl cyclase activity was determined from wells with only SFM+IBMX media added.
The cells were then incubated at 37° C. for 30 minutes in a CO2 incubator. […] The pellets were discarded and the supernatants were stored at 4° C. until assayed for cAMP concentration. cAMP content for each extract was determined in duplicate by EIA (enzyme-immunoassay) using the Amersham Biotrak cAMP EIA kit (Amersham RPN 225). Final results were expressed as %basal response for agonists and % reversal of serotonin response for antagonists.
The total stimulation of adenyl cyclase by serotonin (So) was determined as the difference in concentration of cAMP in the serotonin-treated cells (Cd) and the basal-treated cells (Cf).
The net stimulation (S) of basal adenyl cyclase by an agonist test compound was determined as the difference in cAMP concentration in the drug-treated cell (C) and the basal-treated cells (Cf).
The net stimulation (Ss) of basal adenyl cyclase by serotonin in the presence of an antagonist test compound was determined as the difference in cAMP concentration in the serontonin-drug-treated cells (Cs) and the basal-treated cells (Cf).
The ability of the antagonist test compound to reverse the serotonin stimuation of adenyl cyclase activity (% reversal, %R) was determined by the formula: […]

Structure (SMILES)	reversal of serotonin stimulation of adenyl cyclase (5-HT6 receptor antagonist behaviour)
O=S(=O)(c1ccccc1)n1cc(C2=CCN3CCCC3C2)c2cccnc21 (stereo not shown) [3-(1,2,3,5,8,8a-Hexahydro-7-indolizinyl)-1-benzenesulfonyl-7-azaindole]	able to reverse the serotonin stimulation of adenyl cyclase
O=S(=O)(c1cccc2ccccc12)n1cc(C2=CCN3CCCC3C2)c2cnccc21 (stereo not shown) [3-(1,2,3,5,8,8a-Hexahydro-7-indolizinyl)-1-(1-naphthalenesulfonyl)-5-azaindole]	able to reverse the serotonin stimulation of adenyl cyclase
O=S(=O)(c1ccccc1)n1cc(C2=CCN3CCCC3C2)c2cnccc21 (stereo not shown) [3-(1,2,3,5,8,8a-Hexahydro-7-indolizinyl)-1-benzenesulfonyl-5-azaindole]	able to reverse the serotonin stimulation of adenyl cyclase
O=S(=O)(c1cccc2ccccc12)n1cc(C2=CCN3CCCC3C2)c2cccnc21 (stereo not shown) [3-(1,2,3,5,8,8a-Hexahydro-7-indolizinyl)-1-(1-naphthalenesulfonyl)-7-azaindole]	able to reverse the serotonin stimulation of adenyl cyclase
